Test results reported in patent US11459586B2, “Methods for increasing efficiency of nuclease-mediated gene editing in stem cells” (President and Fellows of Harvard College, priority 2016, dated 2022).

Tested on: human iPSC
Assay: mThy1 gene targeting in hiPSC lentivirally overexpressing anti-apoptotic genes (EGFP+ vs EGFP- subsets)
Type: cell-based
Conditions: lentiviral overexpression
Source text: FIGS. 3A-D. Overexpression of anti-apoptotic factors increases gene targeting rates in human iPSC, both for HR-mediated gene replacement and NHEJ-mediated gene excision. FIG. 3A. Mouse Thy1 gene targeting scheme. Two Crispr sgRNAs target human THY1 either within intron 1 (Left) or after the polyadenylation site (Right). The mouse Thy1 targeting vector plasmid contains mThy1 coding exons 2 and 3, flanked by hThy1 homology arms outside the sgRNA sites—coding exon 1 (which encodes the signal peptide) is retained but the sgRNA sites are disrupted. FIG. 3B. Plain human iPSC were infected with lentivirus that constitutively expresses EGFP together with an anti-apoptotic gene separated by an IRES. Three days after infection, each culture was nucleofected with plasmids encoding the mThy1 targeting vector, Cas9 nuclease, and Thy1 Left, Right, both, or no sgRNAs (pUC19). Five days later, cells were analyzed by flow cytometry. FIG. 3C. Representative FACS plots gated on live single cells: iPSC from each transfected culture were gated based on EGFP expression and the percentage of cells within those subsets that have gained mThy1 expression and/or lost hThy1 expression are indicated. […]
Subsequently, we determined whether rescue by these anti-apoptotic genes would result in higher gene editing frequencies in hiPSC. […]

Bcl-2: B cell lymphoma 2 protein, anti-apoptotic, overexpressed from lentivirus or Cas9 plasmid
frequency of NHEJ-mediated hThy1 homozygous gene deletions (both Thy1 sgRNAs): increased
frequency of HR-mediated mThy1 homozygous gene replacements (one sgRNA): dramatic increase
